For 29 compounds, IC50 results are on record in US20220135591A1, “HETEROCYCLIC COMPOUNDS AS INHIBITORS OF MONOACYLGLYCEROL LIPASE (MAGL)” (Hoffmann-La Roche Inc., priority 2019, published 2022).

The target in this assay is T1, MAGL (Homo sapiens, UniProt Q99685).
T1 sequence (Q99685 1-303): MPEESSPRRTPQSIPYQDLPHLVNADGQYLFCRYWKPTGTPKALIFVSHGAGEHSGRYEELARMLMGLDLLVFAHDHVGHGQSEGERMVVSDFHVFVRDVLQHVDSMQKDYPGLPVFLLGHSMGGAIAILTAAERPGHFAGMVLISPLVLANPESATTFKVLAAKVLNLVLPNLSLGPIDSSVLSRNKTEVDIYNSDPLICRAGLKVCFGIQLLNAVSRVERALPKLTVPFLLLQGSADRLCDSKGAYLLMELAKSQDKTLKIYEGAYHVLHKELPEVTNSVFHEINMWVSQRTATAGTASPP
Kind of assay: 2-AG assay: MAGL inhibitory activity by hydrolysis of 2-arachidonoylglycerol to arachidonic acid, mass spectrometry. It counts as biochemical. To be noted: 2-AG assay (values marked [b]). Put shortly: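 Human MAGL […] was preincubated 15 min at RT with compound ([…], 3-fold steps) in 50 mM Tris, 1 mM EDTA, 0.01% Tween. 2-AG (8 μM) was then added for 30 min at RT. Arachidonic acid was quantified by RapidFire SPE–triple quadrupole MS in negative ESI as its ratio to a d8-arachidonic acid standard.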
`Cc1cc(C(=O)N2CCN(c3nc4nc(Cl)ccc4o3)CC2)cnc1OCC1(C)CC1` [Example 156, (4-(5-chlorooxazolo[4,5-b]pyridin-2-yl)piperazin-1-yl)(5-methyl-6-((1-methylcyclopropyl)methoxy)pyridin-3-yl)methanone]: the IC50 – broadly, the concentration that gives 50% inhibition – turned out to be 21 nM.
As for `Cc1cc(C(=O)N2CCN(c3nc4nc(Cl)ccc4o3)CC2)cnc1OCC1(C)COC1` [Example 157, (4-(5-chlorooxazolo[4,5-b]pyridin-2-yl)piperazin-1-yl)(5-methyl-6-((3-methyloxetan-3-yl)methoxy)pyridin-3-yl)methanone], the figure is 317 nM; as for `Cc1cc(C(=O)N2CCN(c3nc4nc(Cl)ccc4o3)CC2)cnc1OCC1(C)CC1(F)F` (centres unmarked) [Example 158, (4-(5-chlorooxazolo[4,5-b]pyridin-2-yl)piperazin-1-yl)(6-((2,2-difluoro-1-methylcyclopropyl)methoxy)-5-methylpyridin-3-yl)methanone], 11 nM; as for `CCC1(COc2ncc(C(=O)N3CCN(c4nc5nc(Cl)ccc5o4)CC3)cc2C)COC1` [Example 159, (4-(5-chlorooxazolo[4,5-b]pyridin-2-yl)piperazin-1-yl)(6-((3-ethyloxetan-3-yl)methoxy)-5-methylpyridin-3-yl)methanone], 117 nM.
As for `COCC1(COc2ncc(C(=O)N3CCN(c4nc5nc(Cl)ccc5o4)CC3)cc2C)CC1` [Example 160, (4-(5-chlorooxazolo[4,5-b]pyridin-2-yl)piperazin-1-yl)(6-((1-(methoxymethyl)cyclopropyl)methoxy)-5-methylpyridin-3-yl)methanone], the figure is 295 nM; as for `Cc1cc(C(=O)N2CCN(c3nc4nc(Cl)ccc4o3)CC2)cnc1OCC1(F)COC1` [Example 161, (4-(5-chlorooxazolo[4,5-b]pyridin-2-yl)piperazin-1-yl)(6-((3-fluorooxetan-3-yl)methoxy)-5-methylpyridin-3-yl)methanone], 906 nM; as for `Cc1cc(C(=O)N2CCN(c3nc4nc(Cl)ccc4o3)CC2)cnc1OCC1(CC#N)CC1` [Example 162, 2-(1-(((5-(4-(5-chlorooxazolo[4,5-b]pyridin-2-yl)piperazine-1-carbonyl)-3-methylpyridin-2-yl)oxy)methyl)cyclopropyl)acetonitrile], 230 nM.
Regarding `Cc1cc(C(=O)N2CCN(c3nc4nc(Cl)ccc4o3)CC2)cnc1OCC1(C#N)CC1` [Example 163, 1-(((5-(4-(5-chlorooxazolo[4,5-b]pyridin-2-yl)piperazine-1-carbonyl)-3-methylpyridin-2-yl)oxy)methyl)cyclopropane-1-carbonitrile], the half-maximal inhibitory concentration (IC50) was determined as 677 nM.
The compound `Cc1cc(C(=O)N2CCN(c3nc4nc(Cl)ccc4o3)CC2)cnc1OCC1(C#N)COC1` [Example 164, 3-(((5-(4-(5-chlorooxazolo[4,5-b]pyridin-2-yl)piperazine-1-carbonyl)-3-methylpyridin-2-yl)oxy)methyl)oxetane-3-carbonitrile] gave an IC50 of 1540 nM.
As for `Cc1cc(C(=O)N2CCN(c3nc4nc(Cl)ccc4o3)CC2)cnc1OCc1cc(F)cc(C#N)c1` [Example 165, 3-(((5-(4-(5-chlorooxazolo[4,5-b]pyridin-2-yl)piperazine-1-carbonyl)-3-methylpyridin-2-yl)oxy)methyl)-5-fluorobenzonitrile], the figure is 42 nM; as for `Cc1cc(C(=O)N2CCN(c3nc4nc(Cl)ccc4o3)CC2)cnc1OCC1CCCO1` (centres unmarked) [Example 166, (4-(5-chlorooxazolo[4,5-b]pyridin-2-yl)piperazin-1-yl)(5-methyl-6-((tetrahydrofuran-2-yl)methoxy)pyridin-3-yl)methanone], 475 nM; as for `Cc1ccc2oc(N3CCN(C(=O)c4cnc(OCC5(C(F)(F)F)CC5)c(C)n4)CC3)nc2n1` [Example 167, [4-(5-methyloxazolo[4,5-b]pyridin-2-yl)piperazin-1-yl]-[6-methyl-5-[[1-(trifluoromethyl)cyclopropyl]methoxy]pyrazin-2-yl]methanone], 63 nM.
Compound `Cc1cc(C(=O)N2CCN(c3nc4nc(Cl)ccc4o3)CC2)cnc1OCC1CCO1` (centres unmarked) [Example 168, (4-(5-chlorooxazolo[4,5-b]pyridin-2-yl)piperazin-1-yl)(5-methyl-6-(oxetan-2-ylmethoxy)pyridin-3-yl)methanone] showed an IC50 of 1750 nM.
To `COc1cc(C(=O)N2CCN(c3nc4nc(C)ccc4o3)CC2)cnc1OCC1(C(F)(F)F)CC1` [Example 169, [5-methoxy-6-[[1-(trifluoromethyl)cyclopropyl]methoxy]-3-pyridyl]-[4-(5-methyloxazolo[4,5-b]pyridin-2-yl)piperazin-1-yl]methanone] belongs 138 nM; to `Cc1cc(C(=O)N2CCN(c3nc4nc(Cl)ccc4o3)CC2)cnc1OCC1CCCCO1` (centres unmarked) [Example 170, (4-(5-chlorooxazolo[4,5-b]pyridin-2-yl)piperazin-1-yl)(5-methyl-6-((tetrahydro-2H-pyran-2-yl)methoxy)pyridin-3-yl)methanone], 57 nM.
To `COC1(COc2ncc(C(=O)N3CCN(c4nc5nc(Cl)ccc5o4)CC3)cc2C)CC1` [Example 171, (4-(5-chlorooxazolo[4,5-b]pyridin-2-yl)piperazin-1-yl)(6-((1-methoxycyclopropyl)methoxy)-5-methylpyridin-3-yl)methanone] belongs 188 nM; to `Cc1cc(C(=O)N2CCN(c3nc4nc(Cl)ccc4o3)CC2)cnc1OC[C@H](F)CF` [Example 172, (S)-(4-(5-chlorooxazolo[4,5-b]pyridin-2-yl)piperazin-1-yl)(6-(2,3-difluoropropoxy)-5-methylpyridin-3-yl)methanone], 978 nM; to `Cc1cc(C(=O)N2CCN(c3nc4nc(Cl)ccc4o3)CC2)cnc1OCCC(F)(F)F` [Example 173, (4-(5-chlorooxazolo[4,5-b]pyridin-2-yl)piperazin-1-yl)(5-methyl-6-(3,3,3-trifluoropropoxy)pyridin-3-yl)methanone], 135 nM.
To `Cc1cc(C(=O)N2CCN(c3nc4nc(Cl)ccc4o3)CC2)cnc1OC[C@@H](F)CF` [Example 174, (R)-(4-(5-chlorooxazolo[4,5-b]pyridin-2-yl)piperazin-1-yl)(6-(2,3-difluoropropoxy)-5-methylpyridin-3-yl)methanone] belongs 706 nM.
In turn, `Cc1cc(C(=O)N2CCN(c3nc4nc(Cl)ccc4o3)CC2)cnc1-c1cnn(C(C)(C)C)c1` [Example 190, [6-(1-tert-butylpyrazol-4-yl)-5-methylpyridin-3-yl]-[4-(5-chloro-[1,3]oxazolo[4,5-b]pyridin-2-yl)piperazin-1-yl]methanone] showed an IC50 of 46 nM.
As for `Cc1ccc2oc(N3CCN(C(=O)c4cnc(-c5cnn(C(C)(C)C)c5)c(C)c4)CC3)nc2n1` [Example 191, [6-(1-tert-butylpyrazol-4-yl)-5-methylpyridin-3-yl]-[4-(5-methyl-[1,3]oxazolo[4,5-b]pyridin-2-yl)piperazin-1-yl]methanone], the figure is 98 nM; as for `Cc1cc(C(=O)N2CCN(c3nc4nc(Cl)ccc4o3)CC2)ccc1-c1cn(CC(C)(C)C)nn1` [Example 231, (4-(5-chlorooxazolo[4,5-b]pyridin-2-yl)piperazin-1-yl)(3-methyl-4-(1-neopentyl-1H-1,2,3-triazol-4-yl)phenyl)methanone], 4 nM; as for `Cc1cc(C(=O)N2CCN(c3nc4nc(Cl)ccc4o3)CC2)ccc1-c1cnn(CC(C)(C)C)n1` [Example 232, (4-(5-chlorooxazolo[4,5-b]pyridin-2-yl)piperazin-1-yl)(3-methyl-4-(2-neopentyl-2H-1,2,3-triazol-4-yl)phenyl)methanone], 1 nM.
As for `CC(C)(C)Cn1cc(-c2ccc(C(=O)N3CCN(c4nc5nc(Cl)ccc5o4)CC3)cc2C#N)nn1` [Example 233, 5-(4-(5-chlorooxazolo[4,5-b]pyridin-2-yl)piperazine-1-carbonyl)-2-(1-neopentyl-1H-1,2,3-triazol-4-yl)benzonitrile], the figure is 20 nM.
To `CC(C)(C)Cn1ncc(-c2ccc(C(=O)N3CCN(c4nc5nc(Cl)ccc5o4)CC3)cc2C#N)n1` [Example 234, 5-(4-(5-chlorooxazolo[4,5-b]pyridin-2-yl)piperazine-1-carbonyl)-2-(2-neopentyl-2H-1,2,3-triazol-4-yl)benzonitrile] belongs 10 nM; to `Cc1ccc2oc(N3CCN(C(=O)c4ccc(-c5cn(CC(C)(C)C)nn5)c(C#N)c4)CC3)nc2n1` [Example 235, 5-(4-(5-methyloxazolo[4,5-b]pyridin-2-yl)piperazine-1-carbonyl)-2-(1-neopentyl-1H-1,2,3-triazol-4-yl)benzonitrile], 104 nM; to `Cc1ccc2oc(N3CCN(C(=O)c4ccc(-c5cnn(CC(C)(C)C)n5)c(C#N)c4)CC3)nc2n1` [Example 236, 5-(4-(5-methyloxazolo[4,5-b]pyridin-2-yl)piperazine-1-carbonyl)-2-(2-neopentyl-2H-1,2,3-triazol-4-yl)benzonitrile], 33 nM.
On to `COc1cc(C(=O)N2CCN(c3nc4nc(Cl)ccc4o3)CC2)ccc1-c1cn(CC(C)(C)C)nn1` [Example 237, (4-(5-chlorooxazolo[4,5-b]pyridin-2-yl)piperazin-1-yl)(3-methoxy-4-(1-neopentyl-1H-1,2,3-triazol-4-yl)phenyl)methanone], for which inhibition was half-maximal at 7 nM (IC50).
Take `COc1cc(C(=O)N2CCN(c3nc4nc(Cl)ccc4o3)CC2)ccc1-c1cnn(CC(C)(C)C)n1` [Example 238, (4-(5-chlorooxazolo[4,5-b]pyridin-2-yl)piperazin-1-yl)(3-methoxy-4-(2-neopentyl-2H-1,2,3-triazol-4-yl)phenyl)methanone]: the IC50 stood at 1 nM.
